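Protocol summary: plate cells (96-well), add compound at 5 concentrations, incubate 48 h, interpolate endpoints linearly. GI50 marks 50% less growth. Definition used: TGI = concentration required for complete inhibition of growth.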

Test systems include DU-145 prostate; OVCAR-3 ovarian; PC-3 prostate; A498 renal; HT29 colon; UACC-62 melanoma; LOX IMVI melanoma; OVCAR-5 ovarian; HCC-2998 colon; IGROV1 ovarian.
Assay in all cases: inhibition of tumour cell growth, NCI panel, 48 h

On to `CC[C@@]12C=CC(=S)N(CCSc3ccccc3)[C@@H]1c1c(n(S(=O)(=O)c3ccc(OC)cc3)c3ccccc13)CC2`, for which the TGI with DU-145 prostate, in the test with OVCAR-3 ovarian, with PC-3 prostate, with A498 renal, in the test with HT29 colon and in the test with UACC-62 melanoma was greater than 100 µM throughout. The TGI with LOX IMVI melanoma, in the test with OVCAR-5 ovarian and with HCC-2998 colon was greater than 100 µM throughout.
Regarding `O=C(N/N=C\c1ccccc1)Nc1cccc2ccccc12`, the TGI in the test on DU-145 prostate is greater than 100 µM; in the test on OVCAR-3 ovarian, greater than 100 µM; with PC-3 prostate, 86.5 µM; with A498 renal, 88.9 µM; in the test with HT29 colon, 69.9 µM; with IGROV1 ovarian, greater than 100 µM. Also, the TGI with UACC-62 melanoma, in the test with LOX IMVI melanoma, in the test on OVCAR-5 ovarian and in the test on HCC-2998 colon was greater than 100 µM each time.
With `Nc1ccc(Oc2ccc(C34CC5CC6C3CC3CC4C(C5)C6(c4ccc(Oc5ccc(N)c(O)c5)cc4)C3)cc2)cc1O`, the TGI in the test on DU-145 prostate is greater than 43.5 µM; in the test on OVCAR-3 ovarian, 8.28 µM; with PC-3 prostate, 11.9 µM; in the test with A498 renal, 20.4 µM; in the test on HT29 colon, greater than 34.7 µM; in the test on IGROV1 ovarian, 22.6 µM. For the same molecule, the TGI in the test on UACC-62 melanoma is 26.3 µM; with LOX IMVI melanoma, greater than 34.9 µM; in the test with OVCAR-5 ovarian, greater than 39.5 µM; in the test on HCC-2998 colon it was 7.57 µM.
Take `CC(=O)NC(Cc1ccc(OP(=O)(OCc2ccc([N+](=O)[O-])o2)N(C)CCCCCl)cc1)C(=O)NC(C)c1ccc(OCC2CCCCC2)c(C(N)=O)c1` (centres undefined): the TGI in the test on DU-145 prostate turned out to be 15.2 µM; in the test with OVCAR-3 ovarian, 5.04 µM; in the test on PC-3 prostate, 10.5 µM; in the test on A498 renal, 35.4 µM; in the test with HT29 colon, 4.83 µM; in the test on IGROV1 ovarian, 7.01 µM. Moreover, the TGI with UACC-62 melanoma came out at 5.34 µM; in the test with LOX IMVI melanoma it was 3.77 µM; in the test on OVCAR-5 ovarian, 21.2 µM; with HCC-2998 colon, 3.42 µM.
Turning to `CC12CCC(C(Nc3ccccn3)C1=O)C2(C)C` (centres undefined), the TGI in the test with DU-145 prostate, with OVCAR-3 ovarian, in the test on PC-3 prostate, in the test with A498 renal, in the test with HT29 colon and in the test with IGROV1 ovarian was greater than 100 µM throughout. Further, the TGI with UACC-62 melanoma, with LOX IMVI melanoma, with OVCAR-5 ovarian and in the test on HCC-2998 colon was greater than 100 µM in each case.
Turning to `Oc1cccc(-c2cn3cc(C(F)(F)F)ccc3n2)c1`, the TGI with DU-145 prostate was 72.5 µM; in the test with OVCAR-3 ovarian, 86.7 µM; with PC-3 prostate, greater than 100 µM; in the test with A498 renal, greater than 100 µM; with HT29 colon, 60.8 µM; in the test on IGROV1 ovarian it was greater than 100 µM. Besides, the TGI in the test with UACC-62 melanoma was greater than 100 µM; in the test on LOX IMVI melanoma, greater than 100 µM; with OVCAR-5 ovarian, greater than 100 µM; in the test on HCC-2998 colon, 54 µM.
Consider `COc1cc2c(cc1OC)-c1cc3cc(OC)c(OC)cc3c(=O)n1CC2`, for which the TGI in the test on DU-145 prostate is greater than 51.5 µM; in the test with OVCAR-3 ovarian, greater than 100 µM; in the test with PC-3 prostate, greater than 100 µM; in the test with A498 renal it was 45.2 µM; in the test with HT29 colon, greater than 100 µM; in the test on IGROV1 ovarian, greater than 62.3 µM. Further, the TGI in the test on UACC-62 melanoma was 34.7 µM; in the test on LOX IMVI melanoma it was greater than 100 µM; in the test with OVCAR-5 ovarian, greater than 100 µM; with HCC-2998 colon it was greater than 100 µM.
Take `Oc1ccc(C#CCOc2ccccc2)cc1CNCCN(Cc1ccccn1)Cc1ccccn1`: the GI50 in the test on DU-145 prostate is 1.08 µM; in the test with OVCAR-3 ovarian, 1.47 µM; with PC-3 prostate it was 0.799 µM; with A498 renal, 1.19 µM; in the test on HT29 colon, 2.54 µM; with IGROV1 ovarian, 0.45 µM. For the same molecule, the GI50 is 1.68 µM with UACC-62 melanoma, 1.25 µM in the test on LOX IMVI melanoma, 1.18 µM in the test on OVCAR-5 ovarian and 1.65 µM in the test with HCC-2998 colon. Besides, the TGI amounted to 2.95 µM in the test on DU-145 prostate; 3.04 µM with OVCAR-3 ovarian; 4.06 µM with PC-3 prostate; 2.44 µM in the test with A498 renal; 12.6 µM in the test with HT29 colon; 1.66 µM with IGROV1 ovarian. Further, the TGI in the test on UACC-62 melanoma stood at 3.59 µM; in the test on LOX IMVI melanoma, 2.79 µM; with OVCAR-5 ovarian it was 3.72 µM; in the test on HCC-2998 colon, 3.36 µM.
For `CC(C)(C)[C@H]1CCC2(OCCO2)[C@](O)(CCCO)C1`, the TGI in the test with DU-145 prostate, in the test with OVCAR-3 ovarian, with PC-3 prostate, with A498 renal, in the test on HT29 colon and in the test with IGROV1 ovarian was greater than 100 µM in each case. Also, the TGI with UACC-62 melanoma, in the test with LOX IMVI melanoma, with OVCAR-5 ovarian and with HCC-2998 colon was greater than 100 µM each time.
For the molecule `C[C@]1(O)O[C@@H]2OCC[C@@H]2C2=C1C(=O)c1ccccc1C2=O`, the TGI was 30.4 µM in the test on DU-145 prostate; 22.3 µM in the test with OVCAR-3 ovarian; 54.8 µM with PC-3 prostate; 27.1 µM in the test on A498 renal; greater than 100 µM with HT29 colon; 27.2 µM in the test with IGROV1 ovarian. The TGI was found to be 39.5 µM in the test on UACC-62 melanoma, 25.2 µM in the test with LOX IMVI melanoma, 32.4 µM with OVCAR-5 ovarian and 40.6 µM in the test on HCC-2998 colon.
Take `N#Cc1nc(CCC(c2nc(C#N)c(N)o2)N2C(=O)c3ccccc3C2=O)oc1N` (centres undefined): the TGI in the test on DU-145 prostate, in the test with OVCAR-3 ovarian, with PC-3 prostate, in the test on A498 renal, with HT29 colon and in the test with IGROV1 ovarian was greater than 100 µM each time. Besides, the TGI in the test with UACC-62 melanoma, in the test on LOX IMVI melanoma, in the test on OVCAR-5 ovarian and in the test on HCC-2998 colon was greater than 100 µM in each case.
`O=C1C(NCCN2CCOCC2)=C(Cl)C(=O)c2ncccc21`: the TGI with DU-145 prostate is 2.17 µM; with OVCAR-3 ovarian, 5.48 µM; in the test on PC-3 prostate, 1.95 µM; in the test with A498 renal it was 3.98 µM; in the test on HT29 colon it was 2.95 µM; in the test with IGROV1 ovarian it was 2.3 µM. Further, the TGI with UACC-62 melanoma worked out at 2.17 µM; in the test with LOX IMVI melanoma, 0.928 µM; in the test with OVCAR-5 ovarian it was 3.18 µM; with HCC-2998 colon, 1.94 µM.

Values taken from PubChem BioAssay (NCI).
